Data taken from PubChem BioAssay (NCI).
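Interpolation was linear, between the two tested concentrations surrounding the appropriate level; five concentrations were tested over 48 hours in 96-well plates. Here, GI50 denotes the concentration required for 50% inhibition of growth. The concentration for full growth arrest is given as TGI.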

How the values were obtained:
Experiment in all cases: NCI-60 cell line screen, 48 h
[1] = system: 786-0 renal
[2] = system: CAKI-1 renal
[3] = system: SK-OV-3 ovarian
[4] = system: MOLT-4 leukemia
[5] = system: CCRF-CEM leukemia
[6] = system: HCC-2998 colon
[7] = system: A498 renal
[8] = system: HOP-92 NSCLC

Compound | GI50 [1] | TGI [1] | GI50 [2] | TGI [2] | GI50 [3] | TGI [3] | GI50 [4] | TGI [4] | GI50 [5] | TGI [5] | GI50 [6] | TGI [6] | GI50 [7] | TGI [7] | GI50 [8] | TGI [8]
C[C@H]1C[C@@H](n2c(Nc3ccc(OC(F)(F)F)cc3)nc3cc(CCC(=O)O)ccc32)CC(C)(C)C1 | 5.5 µM | 19.7 µM | 15.4 µM | 28.8 µM | 20 µM | 35.4 µM | 9.37 µM | 32.6 µM | 16.2 µM | 44.5 µM | 6.68 µM | 20.8 µM | 11.1 µM | 23.2 µM | 16.4 µM | 32.1 µM
CCCC(=O)OCC1OC(n2cc(F)c(=O)[nH]c2=O)CC1OC(=O)CCC (configuration not stated) |  | > 10 µM |  | > 7.85 µM |  | > 10 µM |  | > 10 µM |  | > 10 µM |  | > 10 µM |  | > 9.23 µM |  | > 10 µM
CN(C)CCNC(=O)c1ccc2c(c1)oc1cc3ccccc3c(=O)n12 | 18.2 µM | 33.1 µM | 10.8 µM | 25.4 µM | 13.8 µM | 30.9 µM | 97.7 µM | > 100 µM |  |  |  |  |  |  | 9.78 µM | 38.4 µM
CC(C)(C)C1=CC(=N/N=c2\scc(-c3ccccc3)n2Cc2ccccc2)C=C(C(C)(C)C)C1=O |  | > 100 µM |  | > 100 µM |  |  |  | > 100 µM |  | > 100 µM |  | > 100 µM |  | > 100 µM |  | 
O=C(CCN1CCCC1)Nc1ccc2c(Nc3ccc(F)cc3)c3ccccc3nc2c1 | 1.21 µM | 2.77 µM | 1.26 µM | 2.6 µM |  |  | 0.133 µM | 3.02 µM | 0.274 µM | 11.1 µM | 1.16 µM | 2.52 µM | 1.03 µM | 4.89 µM | 1.18 µM | 2.68 µM
COc1ccc(-c2cn(C)c3c2-n2cccc2C3=O)cc1O | 9.86 µM | 30.7 µM | 2.09 µM | 7.77 µM | 5.86 µM | 94.7 µM | 7.21 µM | 82.2 µM | 3.66 µM | 25.4 µM | 2.48 µM | 6.46 µM | 2.82 µM | 9.4 µM | 6.8 µM | > 100 µM
Nc1[nH]nc(Nc2ccccc2)c1-c1nc2ccccc2s1 | 1.34 µM | 3.08 µM |  |  | 4.63 µM | 15.7 µM | 0.683 µM | 7.81 µM | 0.911 µM | 9.61 µM | 1.88 µM | 4.21 µM | 1.69 µM | 4.01 µM | 1.4 µM | 3.77 µM
COc1ccc(CCN2CCCn3c2nc2ccccc2c3=O)cc1 | 0.299 µM | > 100 µM | 0.252 µM | > 100 µM | 0.396 µM | > 100 µM | 0.0779 µM | > 100 µM | 0.162 µM | > 100 µM | 0.362 µM | > 100 µM | 0.0296 µM | 0.814 µM | 3.33 µM | > 95.6 µM
O=C1OC(c2ccc([N+](=O)[O-])cc2)=N/C1=C\c1ccc(Cl)cc1 |  | > 100 µM |  | > 100 µM |  | > 100 µM |  | > 100 µM |  | > 100 µM |  | > 100 µM |  | > 100 µM |  | > 100 µM
COc1ccc(Cn2cc3c(c2-c2ccccc2)CCc2cnoc2-3)cc1 | 0.243 µM |  | 0.0883 µM | > 100 µM | 0.226 µM | > 100 µM | 0.361 µM | 4.38 µM | 0.251 µM | > 100 µM | 0.209 µM | 0.905 µM | 0.209 µM | > 95.5 µM | 3.31 µM | > 100 µM
COc1ccc(/C=C\c2cc(OC)c(OC)c(OC)c2)cc1NC(=O)/C=C/c1ccc(OC)c(OC)c1 | 4.79 µM | > 100 µM | 3.55 µM | > 100 µM | 0.0736 µM | 0.676 µM | 6.66 µM | > 100 µM | 4.19 µM | > 100 µM | 2.72 µM | > 100 µM | 0.184 µM | > 100 µM | > 100 µM | > 100 µM
CC(C)(C)OC(=O)NCCCCCCCCCn1c2c(c3ccccc3c1=O)C(=O)c1ccccc1-2 | 17.5 µM | 76.9 µM |  |  | 23.6 µM | 78.3 µM | > 100 µM | > 100 µM | > 100 µM | > 100 µM | > 100 µM | > 100 µM |  |  | 14.6 µM | 41.6 µM
Cc1[nH]n(-c2nc(-c3ccccc3)cc(=O)[nH]2)c(=O)c1CCO |  | > 100 µM |  | > 100 µM |  | > 100 µM |  | > 100 µM |  | > 100 µM |  | > 100 µM |  |  |  | > 100 µM
COc1ccc(C2=C(OC(C)=O)c3cccn3-c3ccc(Cl)cc3S2)cc1 |  | > 10 µM |  | > 10 µM |  | > 10 µM |  | 7.47 µM |  | > 10 µM |  | > 10 µM |  |  |  | 6.07 µM
COc1ccc(-c2nc(NC(=O)CS(=O)(=O)c3ccc(F)cc3)sc2C)cc1 | 23 µM | 61.3 µM | 24.2 µM | > 100 µM | 24.1 µM | > 100 µM | 14.5 µM | > 100 µM |  |  | 26 µM | 94.7 µM | 11.6 µM | 32.8 µM | 14.2 µM | 48 µM
CN(c1cccc(C(=O)O)c1)c1cc(O/N=[N+](\[O-])N(C)C)c([N+](=O)[O-])cc1[N+](=O)[O-] | > 100 µM | > 100 µM | > 100 µM | > 100 µM |  |  | > 100 µM | > 100 µM |  |  |  |  |  |  |  | 
O=C(c1ccc(Cl)cc1Cl)N1CCN(C(=O)c2ccc(Cl)cc2Cl)C1=S | 18.6 µM | 42.3 µM | 22.1 µM | 52.1 µM | 22.8 µM | 55.4 µM | 20.5 µM | 43.5 µM | 19.5 µM | 38.5 µM | 22 µM | 44.4 µM | 16.1 µM | 36.5 µM | 7.83 µM | 28.5 µM
COc1ccc(-n2nc(C)c3c(Nc4ccc(NC(=O)Nc5cccc(C(F)(F)F)c5)cc4)ncnc32)cc1 | 1.56 µM | 3.03 µM | 1.46 µM | 2.96 µM | 2.13 µM | 5.3 µM | 2.01 µM | 6.16 µM | 2.3 µM | 8.76 µM | 2.24 µM | 5.31 µM | 1.99 µM | 4.45 µM | 1.59 µM | 3.31 µM
